# Laboratory results: patent US20230277519A1, “IRAK4 DEGRADERS AND USES THEREOF” (Kymera Therapeutics, Inc., priority 2022, published 2023)
# What was measured:
# Ikaros [1] = molecular target: T1, Ikaros (Homo sapiens, UniProt Q13422); assay: Ikaros degradation in tumor by targeted MS (Phase 1a); format: in vivo; conditions: patients, IV, DL1, targeted MS
# T1 construct: from tissue; host or cells: tumor tissue of R/R B-cell NHL patients
# Method: (§1) In some embodiments, the present disclosure provides a method of administering Compound A to a patient in need thereof, comprising administering to said patient a therapeutically effective amount of Compound A or a pharmaceutically acceptable salt thereof (e.g., in a liquid formulation or a unit dose form as described herein), wherein greater than 40%, 50%, 60%, 70%, 80%, or 90% of Ikaros degradation in blood or tumor is achieved (e.g., by measuring, at 48 hours post-administration, Ikaros levels using mass spectrometry or lymphocytes and monocytes using flow cytometry).
# (§2) Patients who provide informed consent and meet the eligibility criteria for the study will be enrolled and treated with Compound A administered intravenously (IV) on Day 1 of a 21-day schedule (Schedule 1). An alternative schedule of Compound A administered IV on Day 1 and Day 2 of a 21-day schedule (Schedule 2) may also be evaluated based on emerging pharmacokinetic, pharmacodynamic, and safety data observed in Schedule 1. If Schedule 2 is investigated, the first dose level will represent a split dose of the highest dose previously determined to be tolerable in Schedule 1 with the total dose administered in Schedule 2 being equivalent to the total dose administered in Schedule 1. Subsequent dose levels for Schedule 2 will follow the same dose escalation scheme as described for Schedule 1. […]
# IRAK4 [2] = molecular target: T2, IRAK4 (Homo sapiens, UniProt Q9NWZ3); assay: IRAK4 degradation in tumor by targeted MS (Phase 1a); format: in vivo; conditions: patients, IV, DL1, targeted MS
# T2 construct: from tissue; host or cells: tumor tissue of R/R B-cell NHL patients
# T2 sequence (Q9NWZ3 1-460): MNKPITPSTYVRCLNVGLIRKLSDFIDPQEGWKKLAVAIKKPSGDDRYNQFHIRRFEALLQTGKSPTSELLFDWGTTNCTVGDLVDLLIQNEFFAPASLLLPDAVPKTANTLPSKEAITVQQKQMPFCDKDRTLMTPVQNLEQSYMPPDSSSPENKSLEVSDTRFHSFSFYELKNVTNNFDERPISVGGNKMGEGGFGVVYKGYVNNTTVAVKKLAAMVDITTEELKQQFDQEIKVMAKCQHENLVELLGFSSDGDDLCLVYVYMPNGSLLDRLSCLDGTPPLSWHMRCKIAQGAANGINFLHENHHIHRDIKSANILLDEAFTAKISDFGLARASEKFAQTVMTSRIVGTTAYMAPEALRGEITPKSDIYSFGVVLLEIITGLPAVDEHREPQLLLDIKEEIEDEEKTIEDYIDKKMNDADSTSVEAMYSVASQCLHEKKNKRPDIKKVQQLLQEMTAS
# Method: (§3) In some embodiments, the present disclosure provides a method of administering Compound A to a patient in need thereof, comprising administering to said patient a therapeutically effective amount of Compound A or a pharmaceutically acceptable salt thereof (e.g., in a liquid formulation or a unit dose form as described herein), wherein great than 30%, 40%, 50%, 60%, 70%, 80%, or 90% of IRAK4 degradation in blood or tumor is achieved (e.g., by measuring, at 48 hours post-administration, IRAK4 levels using mass spectrometry or lymphocytes and monocytes using flow cytometry).
# as §2
# [3] = tested on: IRAK4, Ikaros, and Aiolos; assay: Duration of target degradation in patients (Phase 1a); format: in vivo, human; conditions: once every three-week dosing
# Excerpt: (§4) Patients who provide informed consent and meet the eligibility criteria for the study will be enrolled and treated with Compound A administered intravenously (IV) on Day 1 of a 21-day schedule (Schedule 1). An alternative schedule of Compound A administered IV on Day 1 and Day 2 of a 21-day schedule (Schedule 2) may also be evaluated based on emerging pharmacokinetic, pharmacodynamic, and safety data observed in Schedule 1. If Schedule 2 is investigated, the first dose level will represent a split dose of the highest dose previously determined to be tolerable in Schedule 1 with the total dose administered in Schedule 2 being equivalent to the total dose administered in Schedule 1. Subsequent dose levels for Schedule 2 will follow the same dose escalation scheme as described for Schedule 1. If the sponsor and investigators determine that, based on the observed safety, PK, preliminary efficacy, and/or the PD profile, Schedule 2 may not be beneficial to patients, then the study will proceed immediately to Phase 1b after the Schedule 1 MTD/RP2D is determined and Schedule 2 may not be evaluated. • Schedule 1: Dose D1 on a 21-day schedule • Schedule 2: Dose D1, D2 on a 21-day schedule
# [4] = Plasma concentration and PK in patients (Phase 1a); format: in vivo, human; conditions: IV, DL1 and DL2, plasma
# Excerpt: as §4
# Aiolos [5] = molecular target: T3, Aiolos (Homo sapiens, UniProt Q9UKT9); assay: Aiolos degradation in blood by PBMC FLOW (Phase 1a); format: in vivo; conditions: patients with R/R B-cell NHL, IV, DL1 and DL2, PBMC FLOW
# T3 construct: from tissue; host or cells: tumor tissue of R/R B-cell NHL patients
# T3 sequence (Q9UKT9 whole entry): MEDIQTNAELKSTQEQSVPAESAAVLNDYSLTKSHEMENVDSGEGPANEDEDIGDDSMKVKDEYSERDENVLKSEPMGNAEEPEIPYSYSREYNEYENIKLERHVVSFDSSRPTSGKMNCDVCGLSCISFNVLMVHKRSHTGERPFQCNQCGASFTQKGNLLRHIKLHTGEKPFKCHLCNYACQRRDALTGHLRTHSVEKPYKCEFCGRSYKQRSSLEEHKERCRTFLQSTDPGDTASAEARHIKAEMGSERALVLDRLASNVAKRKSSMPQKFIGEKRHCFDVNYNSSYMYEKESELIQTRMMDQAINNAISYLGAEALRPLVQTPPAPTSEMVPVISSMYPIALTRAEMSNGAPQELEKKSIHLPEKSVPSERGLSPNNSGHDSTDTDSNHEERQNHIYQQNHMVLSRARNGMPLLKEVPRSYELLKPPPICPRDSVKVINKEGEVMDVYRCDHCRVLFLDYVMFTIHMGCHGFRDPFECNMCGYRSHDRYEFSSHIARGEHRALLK
# Method: (§5) In some embodiments, the present disclosure provides a method of administering Compound A to a patient in need thereof, comprising administering to said patient a therapeutically effective amount of Compound A or a pharmaceutically acceptable salt thereof (e.g., in a liquid formulation or a unit dose form as described herein), wherein greater than 60%, 70%, 80%, or 90% of Aiolos degradation in blood or tumor is achieved (e.g., by measuring, at 48 hours post-administration, Aiolos levels using mass spectrometry or lymphocytes and monocytes using flow cytometry).
# as §2
# IRAK4 [6] = molecular target: T2, IRAK4; assay: IRAK4 degradation in blood by PBMC FLOW (Phase 1a); format: in vivo; conditions: patients with R/R B-cell NHL, IV, DL1 and DL2, PBMC FLOW
# Method: as §3, §2
# Aiolos [7] = molecular target: T3, Aiolos; assay: Aiolos degradation in tumor by targeted MS (Phase 1a); format: in vivo; conditions: patients, IV, DL1, targeted MS
# Method: as §5, §2
# Ikaros [8] = molecular target: T1, Ikaros; assay: Ikaros degradation in blood by PBMC FLOW (Phase 1a); format: in vivo; conditions: patients with R/R B-cell NHL, IV, DL1 and DL2, PBMC FLOW
# Method: as §1, §2
# T1 sequence (Q13422 whole entry): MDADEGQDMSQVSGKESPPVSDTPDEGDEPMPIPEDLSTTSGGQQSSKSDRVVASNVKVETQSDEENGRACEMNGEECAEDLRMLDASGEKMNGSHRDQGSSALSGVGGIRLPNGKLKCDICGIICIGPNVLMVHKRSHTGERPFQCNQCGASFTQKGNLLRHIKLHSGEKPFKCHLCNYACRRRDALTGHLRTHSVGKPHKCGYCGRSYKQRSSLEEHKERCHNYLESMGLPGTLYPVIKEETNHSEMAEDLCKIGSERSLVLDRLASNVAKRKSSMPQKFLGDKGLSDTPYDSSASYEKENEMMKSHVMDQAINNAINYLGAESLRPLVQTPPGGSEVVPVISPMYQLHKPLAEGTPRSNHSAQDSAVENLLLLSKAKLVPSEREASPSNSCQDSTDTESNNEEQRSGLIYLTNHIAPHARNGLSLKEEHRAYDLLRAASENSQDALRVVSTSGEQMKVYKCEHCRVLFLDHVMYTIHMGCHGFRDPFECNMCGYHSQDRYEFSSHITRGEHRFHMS
smiles,measurement,setting,value
CC(C)(O)c1cc2nc([C@H]3CC[C@H](CN4CC5(CC(CCNc6cccc7c6C(=O)N(C6CCC(=O)NC6=O)C7=O)C5)C4)CC3)sc2cc1NC(=O)c1cccc(C(F)(F)F)n1 (some centres unmarked) [Compound A],Ikaros KD in tumor,Ikaros [1],40-66%
same,IRAK4 KD in tumor,IRAK4 [2],27%
same,Duration of target degradation,[3],At least 72 h
same,Exposure (plasma concentration and PK),[4],dose-proportional increase in exposure
same,KD of Aiolos in PBMC,Aiolos [5],≤ 95%
same,IRAK4 degradation in PBMC,IRAK4 [6],Up to 40%
same,Aiolos KD in tumor,Aiolos [7],40-66%
same,KD of Ikaros in PBMC,Ikaros [8],≤ 95%
